Data from patent US11673910B2, “Macrolides with modified desosamine sugars and uses thereof” (Zikani Therapeutics, Inc., priority 2017, dated 2023).
In brackets after ≈: the same amount, converted by molar mass.

Experiments:
Type in all cases: cell-based
[1] = tested on: P. aeruginosa strain MP-3; assay: Broth dilution MIC determination (CLSI) against P. aeruginosa strain MP-3; conditions: Pseudomonas aeruginosa, MP3
Outline: (§1)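 Reported scores reflect MIC ranges, with +++ at or below 4 mg/L, ++ from 8 up to under 32 mg/L, and + at 32 mg/L or higher. The macrolides were tested following CLSI broth dilution procedures.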

[2] = tested on: A. baumannii strain MP-15; assay: Broth dilution MIC determination (CLSI) against A. baumannii strain MP-15; conditions: Acinetobacter baumannii, MP15
Outline: as §1

[3] = tested on: K. pneumoniae strain MP-548; assay: Broth dilution MIC determination (CLSI) against K. pneumoniae strain MP-548; conditions: Klebsiella pneumoniae, MP548
Outline: as §1

[4] = tested on: E. coli strain MP-4; assay: Broth dilution MIC determination (CLSI) against E. coli strain MP-4; conditions: Escherichia coli, MP4
Outline: as §1

[5] = tested on: S. aureus strain MP-12; assay: Broth dilution MIC determination (CLSI) against S. aureus strain MP-12; conditions: Staphylococcus aureus, MP12, strain MP-12
Outline: as §1

MIC [1]	MIC [2]	MIC [3]	MIC [4]	MIC [5]	SMILES
≥ 32 µg/mL	≥ 32 µg/mL	≥ 32 µg/mL	≥ 32 µg/mL	≥ 32 µg/mL	CC[C@H]1OC(=O)C(C)C(=O)[C@H](C)[C@@H](O[C@@H]2O[C@H](CN(C)C(=O)CN(C)C3CC3)CC(N(C)C)[C@H]2O)[C@](C)(OC)C[C@@H](C)CN[C@H](C)[C@H]2NC(=O)O[C@@]21C (some centres unmarked) [Compound 172, 3-Descladinosyl-3-oxo-6-O-methyl-N9a-desmethyl-11,12-dideoxy-12,11-(oxycarbonylimino)-6′-(N-methyl-N-(2-cyclopropylamino)acetylamino) Azithromycin]
≥ 32 µg/mL	≥ 32 µg/mL	≥ 32 µg/mL	≥ 32 µg/mL	≥ 32 µg/mL	CC[C@H]1OC(=O)C(C)C(=O)[C@H](C)[C@@H](OC2OC(CNCCS(C)(=O)=O)CC(N(C)C)C2O)[C@](C)(OC)C[C@@H](C)CN[C@H](C)[C@H]2NC(=O)O[C@@]21C (some centres unmarked) [Compound 140, 3-Descladinosyl-3-oxo-6-O-methyl-N9a-desmethyl-11,12-dideoxy-12,11-(oxycarbonylimino)-6′-2″-(methylsulfonyl)ethan-1″-amino Azithromycin]
≥ 32 µg/mL	≥ 32 µg/mL	8 to 32 µg/mL (≈ 11.5 to 45.9 µM)	≤ 4 µg/mL	≥ 32 µg/mL	CC[C@H]1OC(=O)C(C)C(=O)[C@H](C)[C@@H](OC2OC(CN3CCCCC3)CC(N(C)C)C2O)[C@](C)(OC)C[C@@H](C)CN[C@H](C)[C@H]2NC(=O)O[C@@]21C (some centres unmarked) [Compound 123, 3-Desdadinosyl-3-oxo-6-O-methyl-N9a-desmethyl-11,12-dideoxy-12,11-(oxycarbonylimino)-6′-(1-piperidinyl) Azithromycin]
≥ 32 µg/mL	≥ 32 µg/mL	8 to 32 µg/mL (≈ 11.3 to 45 µM)	≤ 4 µg/mL	≥ 32 µg/mL	CC[C@H]1OC(=O)C(C)C(=O)[C@H](C)[C@@H](OC2OC(CN3CCCCCC3)CC(N(C)C)C2O)[C@](C)(OC)C[C@@H](C)CN[C@H](C)[C@H]2NC(=O)O[C@@]21C (some centres unmarked) [Compound 124, 3-Desdadinosyl-3-oxo-6-O-methyl-N9a-desmethyl-11,12-dideoxy-12,11-(oxycarbonylimino)-6′-(1-azepanyl) Azithromycin]
≥ 32 µg/mL	≥ 32 µg/mL	≥ 32 µg/mL	≤ 4 µg/mL	≥ 32 µg/mL	CC[C@H]1OC(=O)C(C)C(=O)[C@H](C)[C@@H](O[C@@H]2OC(CNCc3ccc(C#N)cc3)CC(N(C)C)C2O)[C@](C)(OC)C[C@@H](C)CN[C@H](C)[C@H]2NC(=O)O[C@@]21C (some centres unmarked) [Compound 40]
≥ 32 µg/mL	≥ 32 µg/mL	≥ 32 µg/mL	8 to 32 µg/mL (≈ 9.84 to 39.4 µM)	≥ 32 µg/mL	CC[C@H]1OC(=O)C(C)C(=O)[C@H](C)[C@@H](O[C@@H]2OC(CNCc3cccc(Oc4cnccn4)c3)CC(N(C)C)C2O)[C@](C)(OC)C[C@@H](C)CN[C@H](C)[C@H]2NC(=O)O[C@@]21C (some centres unmarked) [Compound 22]
≥ 32 µg/mL	≥ 32 µg/mL	8 to 32 µg/mL (≈ 11.9 to 47.6 µM)	8 to 32 µg/mL (≈ 11.9 to 47.6 µM)	≥ 32 µg/mL	CC[C@H]1OC(=O)C(C)C(=O)[C@H](C)[C@@H](OC2OC(CN(C)OC)CC(N(C)C)C2O)[C@](C)(OC)C[C@@H](C)CN[C@H](C)[C@H]2NC(=O)O[C@@]21C (some centres unmarked) [Compound 145]
≥ 32 µg/mL	≥ 32 µg/mL	≥ 32 µg/mL	≥ 32 µg/mL	≥ 32 µg/mL	CO[C@]1(C)C[C@@H](C)CN[C@H](C)[C@H]2NC(=O)O[C@]2(C)[C@@H](C)OC(=O)C(C)C(=O)[C@H](C)[C@H]1OC1OC(CNC2CC2)CC(N(C)C)C1O (some centres unmarked) [Compound 146, 3-Descladinosyl-3-oxo-6-O-methyl-N9a-desmethyl-11,12-dideoxy-12,11-(oxycarbonylimino)-6′-cyclopropylamino-13-methyl Azithromycin]
≥ 32 µg/mL	≥ 32 µg/mL	≥ 32 µg/mL	≥ 32 µg/mL	≥ 32 µg/mL	CC[C@H]1OC(=O)C(C)C(=O)[C@H](C)[C@@H](O[C@@H]2OC(CNCc3cncc(-n4cncn4)n3)CC(N(C)C)C2O)[C@](C)(OC)C[C@@H](C)CN[C@H](C)[C@H]2NC(=O)O[C@@]21C (some centres unmarked) [Compound 26]
≥ 32 µg/mL	≥ 32 µg/mL	≥ 32 µg/mL	8 to 32 µg/mL (≈ 10.7 to 42.6 µM)	≥ 32 µg/mL	CC[C@H]1OC(=O)C(C)C(=O)[C@H](C)[C@@H](O[C@@H]2OC(CN(C)Cc3ccc(F)cc3)CC(N(C)C)C2O)[C@](C)(OC)C[C@@H](C)CN[C@H](C)[C@H]2NC(=O)O[C@@]21C (some centres unmarked) [Compound 34]
≥ 32 µg/mL	≥ 32 µg/mL	≥ 32 µg/mL	≤ 4 µg/mL	≥ 32 µg/mL	CC[C@H]1OC(=O)C(C)C(=O)[C@H](C)[C@@H](O[C@@H]2OC(CNCc3ccc(N(C)C)cc3)CC(N(C)C)C2O)[C@](C)(OC)C[C@@H](C)CN[C@H](C)[C@H]2NC(=O)O[C@@]21C (some centres unmarked) [Compound 44]
≥ 32 µg/mL	≥ 32 µg/mL	8 to 32 µg/mL (≈ 11.1 to 44.3 µM)	≤ 4 µg/mL	8 to 32 µg/mL (≈ 11.1 to 44.3 µM)	CC[C@H]1OC(=O)C(C)C(=O)[C@H](C)[C@@H](O[C@@H]2OC(CNc3ccccc3F)CC(N(C)C)C2O)[C@](C)(OC)C[C@@H](C)CN[C@H](C)[C@H]2NC(=O)O[C@@]21C (some centres unmarked) [Compound 47]
≥ 32 µg/mL	8 to 32 µg/mL (≈ 11.5 to 46 µM)	8 to 32 µg/mL (≈ 11.5 to 46 µM)	≤ 4 µg/mL	≥ 32 µg/mL	CC[C@H]1OC(=O)C(C)C(=O)[C@H](C)[C@@H](OC2OC(CN3CC4CC4C3)CC(N(C)C)C2O)[C@](C)(OC)C[C@@H](C)CN[C@H](C)[C@H]2NC(=O)O[C@@]21C (some centres unmarked) [Compound 137, 3-Descladinosyl-3-oxo-6-O-methyl-N9a-desmethyl-11,12-dideoxy-12,11-(oxycarbonylimino)-6′-azabicyclo[3.1.0]hexan-3″-ylamino Azithromycin]
≥ 32 µg/mL	≥ 32 µg/mL	≥ 32 µg/mL	8 to 32 µg/mL (≈ 11.5 to 45.9 µM)	≥ 32 µg/mL	CC[C@H]1OC(=O)C(C)C(=O)[C@H](C)[C@@H](OC2OC(CN(C)C3CCC3)CC(N(C)C)C2O)[C@](C)(OC)C[C@@H](C)CN[C@H](C)[C@H]2NC(=O)O[C@@]21C (some centres unmarked) [Compound 150, 3-Descladinosyl-3-oxo-6-O-methyl-N9a-desmethyl-11,12-dideoxy-12,11-(oxycarbonylimino)-6′-methylcyclobutylamino Azithromycin]
≥ 32 µg/mL	≥ 32 µg/mL	8 to 32 µg/mL (≈ 11.9 to 47.7 µM)	≤ 4 µg/mL	≥ 32 µg/mL	CC[C@H]1OC(=O)C(C)C(=O)[C@H](C)[C@@H](O[C@@H]2O[C@H]([C@H](C)N(C)C)CC(N(C)C)[C@H]2O)[C@](C)(OC)C[C@@H](C)CN[C@H](C)[C@H]2NC(=O)O[C@@]21C (stereo partly drawn) [Compound 175, 3-Descladinosyl-3-oxo-6-O-methyl-N9a-desmethyl-11,12-dideoxy-12,11-(oxycarbonylimino)-6′-((S)-(dimethylamino)ethyl) Azithromycin]

SMILES	MIC [1]	MIC [2]	MIC [3]	MIC [4]	MIC [5]
CC[C@H]1OC(=O)[C@@]2(C)CCOC(C)(C[C@@H](C)CN[C@H](C)[C@H]3NC(=O)O[C@@]31C)[C@H](O[C@@H]1OC(CNC(C)C)CC(N(C)C)C1O)[C@@H](C)C2=O (some centres unmarked) [Compound 213]	≥ 32 µg/mL	≥ 32 µg/mL	≤ 4 µg/mL	≤ 4 µg/mL	≤ 4 µg/mL
